Reference: patent publication US9694016B2 (Novartis AG, priority 2013, dated 2017)
Like-named read-outs stand apart in the source and are kept apart here.

Molecular target: b-Raf (V600E) (Homo sapiens (Human), UniProt P15056, V600E)
Conditions: read-out: b-Raf IC-50, AlphaScreen
[1] = 60 min pre-incubation, reaction 3 hours at room temperature
[2] = 60 min pre-incubation, 3 hours reaction

b-Raf (V600E), sequence (P15056 whole entry V600E): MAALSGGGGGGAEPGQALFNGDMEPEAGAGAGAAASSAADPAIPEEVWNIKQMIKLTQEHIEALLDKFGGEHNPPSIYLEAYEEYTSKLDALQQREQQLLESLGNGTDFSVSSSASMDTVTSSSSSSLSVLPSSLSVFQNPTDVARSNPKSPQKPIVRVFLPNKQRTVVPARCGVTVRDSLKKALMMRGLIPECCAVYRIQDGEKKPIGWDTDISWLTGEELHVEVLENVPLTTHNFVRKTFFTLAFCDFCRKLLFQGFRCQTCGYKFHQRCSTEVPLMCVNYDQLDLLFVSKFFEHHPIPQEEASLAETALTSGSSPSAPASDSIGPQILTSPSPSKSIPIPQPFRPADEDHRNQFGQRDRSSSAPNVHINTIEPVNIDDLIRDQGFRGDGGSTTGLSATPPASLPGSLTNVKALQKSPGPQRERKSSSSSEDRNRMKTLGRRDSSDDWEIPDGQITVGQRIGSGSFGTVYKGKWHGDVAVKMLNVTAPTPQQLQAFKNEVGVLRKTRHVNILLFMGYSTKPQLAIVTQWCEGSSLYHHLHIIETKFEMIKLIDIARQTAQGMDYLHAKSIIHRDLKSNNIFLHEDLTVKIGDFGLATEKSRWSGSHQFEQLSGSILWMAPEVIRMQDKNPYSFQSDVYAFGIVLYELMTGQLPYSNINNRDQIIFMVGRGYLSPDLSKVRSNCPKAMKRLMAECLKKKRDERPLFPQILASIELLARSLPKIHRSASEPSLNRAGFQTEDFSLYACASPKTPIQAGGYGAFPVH

## Cc1ncc(NC(=O)c2cccc(C(F)(F)F)c2)cc1-c1cnc(O[C@H]2CCOC2)c(N2CCOCC2)c1 [Example 310, (S)—N-(2-methyl-5′-morpholino-6′-((tetrahydrofuran-3-yl)oxy)-[3,3′-bipyridin]-5-yl)-3-(trifluoromethyl)benzamide]
Table 2, 3 hours reaction
  IC50: 1.8 nM

## Cc1ccc(NC(=O)c2cncc(C(F)(F)F)c2)cc1-c1cnc(OCCO)c(N2CCOCC2)c1 [Example 1001, N-(3-(6-(2-hydroxyethoxy)-5-morpholinopyridin-3-yl)-4-methylphenyl)-5-(trifluoromethyl)nicotinamide]
[1]
  IC50: 1.36 nM

## Cc1ccc(NC(=O)c2cc(C3CC3)on2)cc1-c1cc(N2CCOCC2)nc(N2CC(O)C2)c1 [Example 1095, 5-cyclopropyl-N-(3-(2-(3-hydroxyazetidin-1-yl)-6-morpholinopyridin-4-yl)-4-methylphenyl)isoxazole-3-carboxamide]
[1]
  IC50: 1.11 nM

## CCn1cc(C(=O)Nc2cnc(C)c(-c3cc(N4CCOCC4)n(C)c(=O)c3)c2)cc(C(F)(F)F)c1=O [Example 502, N-(1′,2-dimethyl-6′-morpholino-2′-oxo-1′,2′-dihydro-[3,4′-bipyridin]-5-yl)-1-ethyl-6-oxo-5-(trifluoromethyl)-1,6-dihydropyridine-3-carboxamide]
[2]
  IC50: 20 nM

## Cc1ccc(NC(=O)c2ccnc(C(C)(F)F)c2)cc1-c1cc(NCCO)nc(N2CCOCC2)c1 [Example 1037, 2-(1,1-difluoroethyl)-N-(3-(2-((2-hydroxyethyl)amino)-6-morpholinopyridin-4-yl)-4-methylphenyl)isonicotinamide]
[1]
  IC50: 1.07 nM

## Cc1ncc(NC(=O)c2cccc(C(F)(F)F)c2)cc1-c1cnc(C(C)(C)C#N)c(N2CCOCC2)c1 [Example 326, N-(6′-(2-cyanopropan-2-yl)-2-methyl-5′-morpholino-[3,3′-bipyridin]-5-yl)-3-(trifluoromethyl)benzamide]
Table 2, 3 hours reaction
  IC50: 3.7 nM

## Cc1ncc(NC(=O)c2cc(C(F)(F)F)ccn2)cc1-c1cc(N2CCOCC2)c(OCC(F)F)nn1 [Example 916, N-(5-(6-(2,2-difluoroethoxy)-5-morpholinopyridazin-3-yl)-6-methylpyridin-3-yl)-4-(trifluoromethyl)picolinamide]
[1]
  IC50: 1.31 nM

## Cc1ccc(C(=O)Nc2ccccc2)cc1-c1cc(N2CCOCC2)n(C)c(=O)c1 [Example 518, 4-methyl-3-(1-methyl-6-morpholino-2-oxo-1,2-dihydropyridin-4-yl)-N-phenylbenzamide]
[2]
  IC50: 79 nM

## Cc1ccc(NC(=O)c2cnnc(C(F)(F)F)c2)cc1-c1cc(N2CCOCC2)nc(NCCO)c1F [Example 1007, N-(3-(3-fluoro-2-((2-hydroxyethyl)amino)-6-morpholinopyridin-4-yl)-4-methylphenyl)-6-(trifluoromethyl)pyridazine-4-carboxamide]
[1]
  IC50: 5.38 nM

## Cc1ccc(NC(=O)c2ccnc(C(C)(C)O)c2)cc1-c1cc(N2CCOCC2)c(=O)n(C)c1 [Example 350, 2-(2-hydroxypropan-2-yl)-N-(4-methyl-3-(1-methyl-5-morpholino-6-oxo-1,6-dihydropyridin-3-yl)phenyl)isonicotinamide]
Table 2, 3 hours reaction
  IC50: 3.5 nM

## CCn1cc(C(=O)Nc2ccc(C)c(-c3cc(N4CCOCC4)n(C)c(=O)c3)c2)cc(C(F)(F)F)c1=O [Example 481, 1-ethyl-N-(4-methyl-3-(1-methyl-6-morpholino-2-oxo-1,2-dihydropyridin-4-yl)phenyl)-6-oxo-5-(trifluoromethyl)-1,6-dihydropyridine-3-carboxamide]
[2]
  IC50: 1.2 nM

## Cc1ccc(NC(=O)c2ccnc(S(C)(=O)=O)c2)cc1-c1cc(N2CCOCC2)n2nccc2n1 [Example 806]
[2]
  IC50: 1.1 nM

## Cc1ncc(NC(=O)c2cccc(C(F)(F)F)c2)cc1-c1cc(N2CCOCC2)c(=O)n(CCC#N)c1 [Example 333, N-(1′-(2-cyanoethyl)-2-methyl-5′-morpholino-6′-oxo-1′,6′-dihydro-[3,3′-bipyridin]-5-yl)-3-(trifluoromethyl)benzamide]
Table 2, 3 hours reaction
  IC50: 11.4 nM

## Cc1ncc(NC(=O)c2cccc(C(F)F)c2)cc1-c1cc(N2CCOCC2)nc(N2CC(O)C2)n1 [Example 770, 3-(difluoromethyl)-N-(5-(2-(3-hydroxyazetidin-1-yl)-6-morpholinopyrimidin-4-yl)-6-methylpyridin-3-yl)benzamide]
[2]
  IC50: 5.3 nM

## Cn1cc(-c2cc(C(=O)Nc3cccc(C(F)(F)F)c3)ccc2Cl)cc(N2CCOCC2)c1=O [Example 425, 4-chloro-3-(1-methyl-5-morpholino-6-oxo-1,6-dihydropyridin-3-yl)-N-(3-(trifluoromethyl)phenyl)benzamide]
Table 2, 3 hours reaction
  IC50: 2.6 nM

## Cc1ccc(NC(=O)c2cccc(C(F)(F)F)c2)cc1-c1cc(N2CCOCC2)nc(OCCO)n1 [Example 40, N-(3-(2-(2-hydroxyethoxy)-6-morpholinopyrimidin-4-yl)-4-methylphenyl)-3-(trifluoromethyl)benzamide]
Table 2, 3 hours reaction
  IC50: 0.8 nM

## Cc1ccc(NC(=O)c2ccnc(C(C)(C)O)c2)cc1-c1cnc(OC(F)F)c(N2CCOCC2)c1 [Example 226, N-(3-(6-(difluoromethoxy)-5-morpholinopyridin-3-yl)-4-methylphenyl)-2-(2-hydroxypropan-2-yl)isonicotinamide]
Table 2, 3 hours reaction
  IC50: 1.9 nM

## Cc1ncc(NC(=O)c2cnnc(C3CC3)c2)cc1-c1cc(N2CCOCC2)nc(N2CC(C)(O)C2)c1 [Example 1101, 6-cyclopropyl-N-(2′-(3-hydroxy-3-methylazetidin-1-yl)-2-methyl-6′-morpholino-[3,4′-bipyridin]-5-yl)pyridazine-4-carboxamide]
[1]
  IC50: 13.7 nM

## CCNc1nc(-c2cc(NC(=O)c3ccnc(S(C)(=O)=O)c3)ccc2C)cc(N2CCOCC2)n1 [Example 702, N-(3-(2-(ethylamino)-6-morpholinopyrimidin-4-yl)-4-methylphenyl)-2-(methylsulfonyl)isonicotinamide]
[2]
  IC50: 3 nM

## CCOc1cc(-c2cc(NC(=O)c3ccnc(C(C)(C)C#N)c3)cnc2C)cc(N2CCOCC2)n1 [Example 1147, 2-(2-cyanopropan-2-yl)-N-(2′-ethoxy-2-methyl-6′-morpholino-[3,4′-bipyridin]-5-yl)isonicotinamide]
[1]
  IC50: 8.31 nM

## Cc1ccc(NC(=O)c2ccnc(C(C)(C)F)c2)cc1-c1cc(N2CCOCC2)c(=O)n(C)n1 [Example 654, 2-(2-fluoropropan-2-yl)-N-(4-methyl-3-(1-methyl-5-morpholino-6-oxo-1,6-dihydropyridazin-3-yl)phenyl)isonicotinamide]
[2]
  IC50: 1.7 nM

## COc1nnc(-c2cc(NC(=O)c3ccnc(C(F)(F)F)c3)ccc2C)cc1N1CCOCC1 [Example 547, N-(3-(6-methoxy-5-morpholinopyridazin-3-yl)-4-methylphenyl)-2-(trifluoromethyl)isonicotinamide]
[2]
  IC50: 1 nM

## Cc1ccc(NC(=O)c2cccc(C3COC3)c2)cc1-c1cc(N2CCOCC2)n(C)c(=O)c1 [Example 492, N-(4-methyl-3-(1-methyl-6-morpholino-2-oxo-1,2-dihydropyridin-4-yl)phenyl)-3-(oxetan-3-yl)benzamide]
[2]
  IC50: 3 nM

## Cc1ccc(NC(=O)c2ccnc(C(F)(F)F)c2)cc1-c1cc(NC[C@@H](C)O)nc(N2CCOCC2)n1 [Example 1023, (R)—N-(3-(6-((2-hydroxypropyl)amino)-2-morpholinopyrimidin-4-yl)-4-methylphenyl)-2-(trifluoromethyl)isonicotinamide]
[1]
  IC50: 2.32 nM

## Cc1ccc(NC(=O)c2cccc(C(F)F)c2)cc1-c1cc(N2CCOCC2)n(C)c(=O)c1 [Example 484, 3-(difluoromethyl)-N-(4-methyl-3-(1-methyl-6-morpholino-2-oxo-1,2-dihydropyridin-4-yl)phenyl)benzamide]
[2]
  IC50: 0.4 nM

## Cc1ncc(NC(=O)c2ccnc(C(C)(C)F)c2)cc1-c1cc(C2COCCO2)nc(N2CCOCC2)c1 (stereo not drawn) [Example 1167, N-(2′-(1,4-dioxan-2-yl)-2-methyl-6′-morpholino-[3,4′-bipyridin]-5-yl)-2-(2-fluoropropan-2-yl)isonicotinamide]
[1]
  IC50: 7.62 nM

## Cc1ncc(NC(=O)c2ccnc(S(C)(=O)=O)c2)cc1-c1cc(N2CCOCC2)n(C)c(=O)c1 [Example 504, N-(1′,2-dimethyl-6′-morpholino-2′-oxo-1′,2′-dihydro-[3,4′-bipyridin]-5-yl)-2-(methylsulfonyl)isonicotinamide]
[2]
  IC50: 21 nM

## Cc1ccc(NC(=O)c2cccc(C(F)(F)F)c2)cc1-c1nc(N2CCOCC2)c2c(cnn2C)n1 [Example 837, N-(4-methyl-3-(1-methyl-7-morpholino-1H-pyrazolo[4,3-d]pyrimidin-5-yl)phenyl)-3-(trifluoromethyl)benzamide]
[2]
  IC50: 0.2 nM

## Cc1ncc(NC(=O)c2cc(C(F)(F)F)ccn2)cc1-c1cnc(OCCO)c(N2CCOCC2)c1 [Example 301, N-(6′-(2-hydroxyethoxy)-2-methyl-5′-morpholino-[3,3′-bipyridin]-5-yl)-4-(trifluoromethyl)picolinamide]
Table 2, 3 hours reaction
  IC50: 3.2 nM

## Cc1ncc(NC(=O)c2ccnc(C(F)F)c2)cc1-c1cc(N2CCOCC2)n2nccc2n1 [Example 803, 2-(difluoromethyl)-N-(6-methyl-5-(7-morpholinopyrazolo[1,5-a]pyrimidin-5-yl)pyridin-3-yl)isonicotinamide]
[2]
  IC50: 1.9 nM

## Cc1ncc(NC(=O)c2ccnc(C(C)(C)F)c2)cc1-c1cc(N2CCOCC2)n2nccc2n1 [Example 790, 2-(2-fluoropropan-2-yl)-N-(6-methyl-5-(7-morpholinopyrazolo[1,5-a]pyrimidin-5-yl)pyridin-3-yl)isonicotinamide]
[2]
  IC50: 3.5 nM

## Cc1ccc(C(=O)Nc2cccc(C(F)F)c2)cc1-c1cc(N2CCOCC2)n(C)c(=O)c1 [Example 514, N-(3-(difluoromethyl)phenyl)-4-methyl-3-(1-methyl-6-morpholino-2-oxo-1,2-dihydropyridin-4-yl)benzamide]
[2]
  IC50: 1.1 nM

## Cc1ccc(C(=O)Nc2cccc(-c3nnco3)c2)cc1-c1cc(N2CCOCC2)c(=O)n(C)c1 [Example 437, N-(3-(1,3,4-oxadiazol-2-yl)phenyl)-4-methyl-3-(1-methyl-5-morpholino-6-oxo-1,6-dihydropyridin-3-yl)benzamide]
[2]
  IC50: 15.4 nM
